Our source for the IC50 values is ChEMBL document CHEMBL1201862, “PubChem BioAssay data set” (2004).

In this experiment the target is T1, High affinity choline transporter 1 (Homo sapiens, UniProt Q9GZV3).
T1 sequence (Q9GZV3 whole entry): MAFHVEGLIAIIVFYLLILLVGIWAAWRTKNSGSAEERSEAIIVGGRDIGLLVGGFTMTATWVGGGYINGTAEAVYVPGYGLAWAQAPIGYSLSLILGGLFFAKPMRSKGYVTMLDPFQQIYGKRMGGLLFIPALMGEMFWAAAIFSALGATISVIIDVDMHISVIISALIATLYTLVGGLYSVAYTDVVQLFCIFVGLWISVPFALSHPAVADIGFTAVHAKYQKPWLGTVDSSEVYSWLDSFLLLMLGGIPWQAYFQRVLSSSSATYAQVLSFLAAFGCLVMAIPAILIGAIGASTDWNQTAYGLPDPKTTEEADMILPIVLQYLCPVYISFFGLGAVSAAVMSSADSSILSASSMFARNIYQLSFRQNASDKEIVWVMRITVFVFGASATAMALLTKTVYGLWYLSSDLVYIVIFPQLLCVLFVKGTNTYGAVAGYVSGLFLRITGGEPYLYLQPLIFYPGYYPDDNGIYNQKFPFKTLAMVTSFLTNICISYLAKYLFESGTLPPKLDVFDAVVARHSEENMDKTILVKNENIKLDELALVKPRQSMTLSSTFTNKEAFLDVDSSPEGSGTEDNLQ
As to the kind of experiment: CHT inhibitors, dose response, cell-based, 5-point CRC, membrane potential dye (AID 504840). The class given is functional.

Calls of active or inactive are those of the source. No rule for the calls is given here.

Consider `CC(/C=C1\SC(=S)N(NS(=O)(=O)c2ccccc2)C1=O)=C\c1ccccc1`, for which the IC50 is 9.12 µM (active).
